This note sets out measurements from patent publication US8895282B2, “Use of a substance for manufacturing of a medicament for treatment of common cold” (Tanomed AB, priority 2008, dated 2014).

Where “and” joins values, the source holds several entries; their conditions need not be identical. Equal entries are not always repeated. Where two headings read alike, the source gives them in different places.

Series [1] deals with Rhinovirus 8. On the procedure:
(§1) Virus concentration=dil 2. Incubation during 30 min in heater keeping 37° C. After 30 min the effect of the hydrogen peroxide is aborted with the addition of 0.1 ml catalase solution into the vial (=1 kU/ml). • 0.7 ml 5% glucose solution+0.1 ml dil 1 of RV7 (=a7) or RV8 (=a8)+0.1 ml of the hydrogen peroxide solution (=final concentration in the vial=[…]). Incubation and abortion of the hydrogen peroxide effect similar as in a).
(§2) Altogether 4 vials (Eppendorff): a7, a8, b7 and b8.
(§3) After the addition of catalase, samples are transferred to a 96-well plate with flat bottom according to table 3.

Series [2] has as its system Rhinovirus 7. On the procedure: as §1, §2, §3
The subject of series [3] is Rhinovirus 7. To be noted: for Infection of WI 38 cells after 10 days of inoculation: 10 U GO + 5% glucose added after 2 days.
For series [4], the system named is Rhinovirus 8. To be noted: for Infection of WI 38 cells after 10 days of inoculation: 10 U GO + 5% glucose added after 2 days.
Series [5] relates to Rhinovirus 7. To be noted: for Day 3 (cytopathic effect of RV 7 on WI 38 cells) / Day 5 (cytopathic effect of RV 7 on WI 38 cells) / Day 7 (cytopathic effect of RV 7 on WI 38 cells): 20 U GO/ml; for Incubation time for inactivation of rhinovirus: glucose oxidase 20 U/ml. The protocol: Virus: Rhinovirus 7, purchased from ATCC (VR-1117), was used as a representative for the rhinovirus group. In the assays the dilutions 10^−2 and 10^−3 were used. […] 0.3 ml of each dilution was added into the vials.
Cell culture: Human lung cell fibroblasts (WI 38, ATCC-CCL-75) was used for cytopathic effect detection. 10-fold serial dilutions had been made from the concentrated viral suspension. […] Then the media was changed to RPMI with 2% of fetal calf serum, which was preserved during the assay. The cells were incubated in CO2enriched air at 37° C. During the experiments a cell culture of 17th-18^thpassage was used.
Catalase: From Sigma-Aldrich™. A solution of 100 000 U/ml was prepared from the original solution of 10^6 U/ml.
H2O2: a 20% solution was diluted in Phosphate buffered saline (PBS) to a 0.5% and a 0.05% solution. 0.1 ml was added to the vials, which means 0.05% or 0.005% in the vials.
A solution of 200 U/ml and 600 U/ml was prepared from the original solution of 6000 U/ml.
In order to evaluate whether the effect of the hydrogen peroxide was a direct effect on the virus itself or a cytoprotective effect, we preincubated the virus with the hydrogen peroxide, before it was transferred to the wells with the cells. The WI 38 cells are also sensitive to hydrogen peroxide, and therefore it was necessary to add catalase before inoculation into the wells. […] This design would also reveal if the inhibitory effect was only a virostatic one, or if it could damage the virions irreversibly.
In table 1 the content of each of the 10 vials (Eppendorf) is listed. The vials were incubated in a heater keeping a stable temperature of 37° C. 1000 U of catalase was added after 15, 30 and 60 min of incubation. 2×50 μl from each vial was transferred to duplicate cell wells (a 96-well plate).

The next series concerns WI 38 cells. On the procedure: as §1, §3
The mark [6] stands for this setting: 40 U/ml of Glucose Oxidase, high initial inoculate.
[7] abbreviates: 50 μl a8: RV8 dil 2 preincubated 30 min with 40 U/ml Glucose Oxidase, then catalase.
Where [8] appears, read: 50 μl a7: RV7 dil 2 preincubated 30 min with 40 U/ml Glucose Oxidase, then catalase.
[9] abbreviates: Glucose Oxidase added into the wells 2 days after the initial incubation.
The mark [10] stands for this setting: RV 7 dil 10^−2, preincubation 15 min.
Where [11] appears, read: RV 7 dil 10^−2, preincubation 30 min.
Where [12] appears, read: RV 7 dil 10^−2, preincubation 60 min.
The mark [13] stands for this setting: RV 7 dil 10^−3, preincubation 15 min.
[14] abbreviates: RV 7 dil 10^−3, preincubation 30 min.
[15] abbreviates: RV 7 dil 10^−3, preincubation 60 min.

On to Glucose oxidase [GO], for which the “Inactivation of RV 8” value in the series with Rhinovirus 8 [1] (setting [6]) is reported as “able to inactivate”. Further, the “Infection of WI 38 cells after 2 days of inoculation” value with Rhinovirus 8 [1] (setting [7]) and in the series with Rhinovirus 7 [2] (setting [8]) was 0 in each case. For the same molecule, the “Infection of WI 38 cells after 10 days of inoculation” value with Rhinovirus 8 [1] (setting [7]) is on record as 0; in the series on Rhinovirus 7 [2] (setting [8]), 0; in the series on Rhinovirus 7 [3] (well E1, 50 μl RV7 dilution 2), 2+; with Rhinovirus 7 [3] (well E3, 50 μl RV7 dilution 4), 0; in the series on Rhinovirus 7 [3] (wells F9, E9, 10 μl RV7 dilution 1), 1+; in the series on Rhinovirus 8 [4] (well E2, 50 μl RV8 dilution 2), 2+. The “Infection of WI 38 cells after 10 days of inoculation” value in the series on Rhinovirus 8 [4] (well E4, 50 μl RV8 dilution 4) was 0; in the series on Rhinovirus 8 [4] (wells D9, C9, 10 μl RV8 dilution 1), 2+ and 3+. Moreover, the “Inactivation of RV 7” value with Rhinovirus 7 [2] (setting [6]) is on record as “able to inactivate”. Also, the “Spread of viral infection to other cells” value in the series on Rhinovirus 7 [3] (setting [9]) and with Rhinovirus 8 [4] (setting [9]) was “could prevent the spread of viral infection” each time. For the same molecule, the “GO concentration having an effect on the Rhinovirus infection” value in the series with Rhinovirus 7 [5] was “less than 20 U/ml”. Also, the “Day 3 (cytopathic effect of RV 7 on WI 38 cells)” value with Rhinovirus 7 [5] (setting [10]), in the series with Rhinovirus 7 [5] (setting [11]), in the series with Rhinovirus 7 [5] (setting [12]), with Rhinovirus 7 [5] (setting [13]), in the series on Rhinovirus 7 [5] (setting [14]) and in the series on Rhinovirus 7 [5] (setting [15]) was “−” each time. The “Day 5 (cytopathic effect of RV 7 on WI 38 cells)” value in the series with Rhinovirus 7 [5] (setting [10]), in the series on Rhinovirus 7 [5] (setting [11]), in the series on Rhinovirus 7 [5] (setting [12]), in the series on Rhinovirus 7 [5] (setting [13]), with Rhinovirus 7 [5] (setting [14]) and with Rhinovirus 7 [5] (setting [15]) was “−” throughout. Moreover, the “Day 7 (cytopathic effect of RV 7 on WI 38 cells)” value in the series with Rhinovirus 7 [5] (setting [10]), with Rhinovirus 7 [5] (setting [11]), in the series on Rhinovirus 7 [5] (setting [12]), in the series with Rhinovirus 7 [5] (setting [13]), in the series with Rhinovirus 7 [5] (setting [14]) and with Rhinovirus 7 [5] (setting [15]) was “−” in each case. Further, in the series on Rhinovirus 7 [5] (20 U/ml of Glucose Oxidase), the “Amount of H2O2 produced by Glucose Oxidase, equivalent” value is reported as “more than 0.005 % H2O2”. Moreover, the “Hydrogen peroxide concentration corresponding to the effective GO concentration” value with Rhinovirus 7 [5] (GO less than 20 U/ml) is reported as “more than 10 mM”. Moreover, the “Reversibility of the inactivation of RV 7” value with Rhinovirus 7 [5] (Glucose Oxidase or 0.05% hydrogen peroxide solution, 7 days of incubation, no sign of recovery) is given as “irreversible”. Also, the “Glucose Oxidase concentration sufficient for complete inactivation of RV 7” value with Rhinovirus 7 [5] (WI 38 cells) is 20 U/ml. For the same molecule, the “Cytopathic effect in wells where Glucose Oxidase had been incubated with RV 7” value with Rhinovirus 7 [5] (after 5 days of incubation, even after only 15 min preincubation and higher RV 7 concentration) was “no cytopathic effect”. In addition, the results for the “Incubation time for inactivation of rhinovirus” value in the series with Rhinovirus 7 [5] and in the series on Rhinovirus 7 [5] (listed as glucose oxidase) were no more than 30 min and “less than 30 minutes”, respectively.

B1: Catalase: specific enzyme catalyzing the conversion of H2O2 into O2 and H2O; purified from human erythrocytes (protein, UniProt P04040 2-527, looked up)
Catalase: ADSRDPASDQMQHWKEQRAAQKADVLTTGAGNPVGDKLNVITVGPRGPLLVQDVVFTDEMAHFDRERIPERVVHAKGAGAFGYFEVTHDITKYSKAKVFEHIGKKTPIAVRFSTVAGESGSADTVRDPRGFAVKFYTEDGNWDLVGNNTPIFFIRDPILFPSFIHSQKRNPQTHLKDPDMVWDFWSLRPESLHQVSFLFSDRGIPDGHRHMNGYGSHTFKLVNANGEAVYCKFHYKTDQGIKNLSVEDAARLSQEDPDYGIRDLFNAIATGKYPSWTFYIQVMTFNQAETFPFNPFDLTKVWPHKDYPLIPVGKLVLNRNPVNYFAEVEQIAFDPSNMPPGIEASPDKMLQGRLFAYPDTHRHRLGPNYLHIPVNCPYRARVANYQRDGPMCMQDNQGGAPNYYPNSFGAPEQQPSALEHSIQYSGEVRRFNTANDDNVTQVRAFYVNVLNEEQRKRLCENIAGHLKDAQIFIQKKAVKNFTEVHPDYGSHIQALLDKYNAEKPKNAIHTFVQSGSHLAAREKANL
In the case of B1, in the series with WI 38 cells, the “Effect on WI 38 cells after 2 days” value came to 0 and the “Effect on WI 38 cells after 10 days” value worked out at 0.
